How the values were obtained:
Assay in all cases: AUC of viability dose-response curve (% viability x log10 dose units); higher = less sensitive
Settings in all cases: 48 h
NOMO1 = tested on: NOMO1
Procedure, shortened: (§1)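 Leukemia cells adapted to each medium were seeded in 1536-well plates (500 or 1000 cells/well). They were dosed with library compounds in DMSO at 11 threefold doses, 47 μM to 0.79 nM, for 48 h at 37°C. CellTiter-Glo One luminescence was normalised per plate to DMSO and cell-free wells. Area under the curve was integrated by trapezoidal rule over log10 doses on a four-parameter log-logistic fit; curves exceeding full viability were scaled and curves failing quality control removed.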

P12-Ichikawa = tested on: P12-Ichikawa
Procedure, shortened: as §1

SEM cells = tested on: SEM cells
Procedure, shortened: as §1

[1] = RPMI 5 mM glucose + 10% dialyzed FBS

SMILES	AUC of viability dose-response curve (NOMO1; HPLM + 10% dialyzed FBS)	AUC of viability dose-response curve (NOMO1; RPMI 5 mM glucose + 10% FBS)	AUC of viability dose-response curve (NOMO1; [1])	AUC of viability dose-response curve (P12-Ichikawa; HPLM + 10% dialyzed FBS)	AUC of viability dose-response curve (P12-Ichikawa; RPMI 5 mM glucose + 10% FBS)	AUC of viability dose-response curve (P12-Ichikawa; [1])	AUC of viability dose-response curve (SEM cells; HPLM + 10% dialyzed FBS)	AUC of viability dose-response curve (SEM cells; RPMI 5 mM glucose + 10% FBS)	AUC of viability dose-response curve (SEM cells; [1])
CNC(=O)CN1CCC(Oc2cc3c(Nc4cccc(Cl)c4F)ncnc3cc2OC)CC1	320	302	325	364	356	374	457	469	469
C=CCc1ccc(O)c(-c2ccc(O)c(CC=C)c2)c1	419	388	382	251	331	319	377	308	345
OC(CN1CCN(c2cccc(Cl)c2)CC1)C(c1ccccc1)c1ccccc1 (configuration not stated)	265	324	341	238	318	307	319	252	257
Cc1noc(-c2ccc(CSCCC(=O)O)cc2)c1NC(=O)OC(C)c1ccccc1Cl (configuration not stated)	468	457	432	464	428	437	453	433	471
COc1cccc2c1[C@]13CCN(CC4CC4)[C@H](C2)[C@]1(OC)CCC(=O)C3	469	459	473	451	436	446	422	416	421
C[C@H]1COC/2=C1/C(=O)C(=O)C3=C4CCCC(C)(C)C4=CC=C23	447	469	448	468	466	473	434	363	400
Cc1c(C)c2c(c(C)c1O)CCC(C)(COc1ccc(CC3SC(=O)NC3=O)cc1)O2 (configuration not stated)	466	466	454	477	477	462	467	462	471
CC(C)Oc1ccc(C(=O)N[C@H](CNC(=O)CN(C)C)Cc2ccc(-c3cn4cccc([C@H](C)O)c4n3)cc2)cc1Cl	354	331	344	394	348	369	363	346	357
